# Reference: patent publication US10456359B2, “Synergistic beverage composition” (Harsha Chigurupati, priority 2015, dated 2019)
# Where a SMILES comes first, the peptide text is derived from it.
# Assays:
# [1] = system: Monocyte chemoattractant protein-1 (MCP-1) from brain homogenate; experiment: CNS study, MCP-1 from brain homogenate, alcohol 5 days; format: in vivo, Wistar albino rats; details: Pro: Protection (%), rats, alcohol 5 Day
# [2] = system: acetylcholinesterase activity of brain homogenate; details: Pro: Protection (%), rats, alcohol 5 Day
# Experimental: (§4) We have included this parameter to evaluate cognition and memory deficit in experimental animals.
# (§5) Experimental Design • (b) Animal study model 1: Saline/Alcohol (4.0 gm/kg/day, p.o.)/Formulation with alcohol (4.0 gm/kg/day, p.o.) were administered (fed orally by orogastric cannula) for one day. 12-16 hours after the dose the animals were sacrificed and blood samples will be collected for estimation of biochemical parameters. Whole brain without cerebellum were dissected out, 10% homogenate was prepared with 0.1 M PB (pH 7.4). The homogenate solution was centrifuged at 10000 rpm for 20 minutes at 4° C. and the supernatant was used for estimation of acetylcholinesterase activity, which was estimated by Ellman's method (Ellman G L et al. A new and rapid colorimetric determination of acetylcholinesterase activity. Biochem Pharmacol, 1961, 7:88.) • (c) Animal study model 2: Saline/Alcohol (4.0 gm/kg/day, p.o.)/Formulation with alcohol (4.0 gm/kg/day, p.o.) were administered (fed orally by orogastric cannula) for 5 consecutive days. 12-16 hours after the last dose, the animals were sacrificed and blood samples were collected for estimation of biochemical parameters. Whole brain without cerebellum were dissected out, 10% homogenate was prepared with 0.1 M PB (pH 7.4). The homogenate solution was centrifuged at 10000 rpm for 20 minutes at 4° C. and the supernatant was used for estimation of acetylcholinesterase activity. […] The latency period of day 5 (before alcohol) was compared with post alcohol latency period (Vorhees C V and Williams M T. Morris water maze: procedures for assessing spatial and related forms of learning and memory, Nat Protoc, 2006, 1(2): 848-58.). % Protection Calculated in Above Experiments: % Protection=1−[(T−NS)/(AL−NS)]×100 T=Mean value of drug treated, NS=Mean value of normal control, AL=Mean value of alcohol alone.
# (§6) Male Wistar albino rats weighing 150-200 g were procured and randomly divided into groups consisting of twelve (12) animals in each group. Alcohol induced hangover and CNS related biochemical changes and memory function in rats by oral administration of 30% alcohol (4 gm/kg/day, p.o.) for 1 and 5 days and this group served as the negative control and treated groups received different formulation.
# (§7) All drug solutions were prepared in 40% aqueous alcohol, adjusting the pH in the range of 5.0-10.0 for evaluation of alcohol induced hangover and CNS related biochemical parameters.
# [3] = system: alkaline phosphatase (ALP); details: Pro: Protection (%); rats, alcohol 4 gm/kg/day p.o., 5 days, serum
# Experimental: The levels of alanine aminotransferase (ALT), aspartate aminotransferase (AST) and alkaline phosphatise (ALP) in serum were measured using commercial spectrophotometric kit bought from Span Diagnostic Ltd. (www.span.in) according to the manufacturer's protocols.
# 12-16 hours after the last dose, the animals were sacrificed and blood samples were collected for estimation of biochemical parameters.
# Male Wistar albino rats weighing 150-200 g were procured and randomly divided into groups consisting of twelve (12) animals in each group. Hepatoprotection was induced by alcohol in rats by oral administration of 30% alcohol (4 gm/kg/day, p.o.) for 5 days and this group served as the negative control and treated groups received different formulation.
# All drug solutions were prepared in 40% aqueous alcohol, adjusting the pH in the range of 5.0-10.0 for evaluation of alcohol induced Hepatoprotection. This solution was further diluted with distilled water to obtain 30% aqueous alcoholic solution and administered orally by gavage to different rats group of step (a).
# [4] = system: aspartate aminotransferase (AST); experiment: Hepatoprotection study, serum AST, alcohol 5 days; format: in vivo, Wistar albino rats; details: Pro: Protection (%), rats, alcohol 4 gm/kg/day p.o.
# [5] = system: interleukin-12 (IL-12) from brain homogenate; experiment: CNS study, IL-12 from brain homogenate, alcohol 5 days; format: in vivo, Wistar albino rats; details: Pro: Protection (%), rats, alcohol 5 Day
# [6] = system: spatial learning and memory; experiment: Morris water maze task (escape latency), alcohol 5 days; format: in vivo, Wistar albino rats; details: Pro: Protection (%), rats, alcohol 5 day
# [7] = system: serum alanine aminotransferase (ALT); experiment: Hepatoprotection study, serum ALT, alcohol 5 days; format: in vivo, Wistar albino rats; details: Pro: Protection (%), rats, alcohol 4 gm/kg/day p.o.
# [8] = system: Interferon gamma (IFN-γ); experiment: CNS/immunology study, serum IFN-gamma, alcohol 5 days; format: in vivo, Wistar albino rats; details: Pro: Protection (%), rats, alcohol 5 Day
# From the text: (§1) Distilled ethanol was obtained from Bengal Chemicals, West Bengal, India. Biochemical kits like AST, ALT, ALP and total protein were obtained from Span Diagnostics Ltd. Surat, India. Rat IL-12 ELISA kit (Elabscience Biotechnology Co. Ltd, WuHan, P.R.C.), Rat CRP ELISA kit (BD Biosciences, USA), Rat IFN-gamma ELISA kit (Biolegend, San Diego, Calif.) Rat MCP-1 ELISA kit (Elabscience Biotechnology Co. Ltd, WuHan, P.R.C.). All the chemicals used in the present study were of analytical grade and obtained from the following companies: Sigma (St. Louis, Mo., USA), Merck (Mumbai, India), S D fine chemicals (Mumbai, India) and Qualigen (Mumbai, India).
# (§2) For hangover, 1 day immunology parameter were considered and for CNS, 5 days immunology parameter were considered.
# [9] = system: serum C-reactive protein (CRP); experiment: CNS/immunology study, serum CRP, alcohol 5 days; format: in vivo, Wistar albino rats; details: Pro: Protection (%), rats, alcohol 5 Day
# From the text: as §2
# [10] = system: Interferon gamma (IFN-γ); experiment: Hangover study, serum IFN-gamma, alcohol 1 day; format: in vivo, Wistar albino rats; set-up: concentration or dose not given beside the values; details: 1 Day alcohol
# From the text: as §1, §2
# [11] = system: Monocyte chemoattractant protein-1 (MCP-1) from brain homogenate; experiment: Hangover study, MCP-1 from brain homogenate, alcohol 1 day; format: in vivo, Wistar albino rats; details: 1 Day alcohol
# [12] = system: interleukin-12 (IL-12); experiment: CNS/immunology study, serum IL-12, alcohol 5 days; format: in vivo, Wistar albino rats; details: Pro: Protection (%), rats, alcohol 5 Day
# From the text: as §2
# [13] = system: Monocyte chemoattractant protein-1 (MCP-1); experiment: Hangover study, serum MCP-1, alcohol 1 day; format: in vivo, Wistar albino rats; set-up: concentration or dose not given beside the values; details: 1 Day alcohol
# Experimental: (§3) The lowest detectable limit of the kit is 0.1 ng/ml (Wang L, Li Y, Chen J, et al. “Ischemic Cerebral Tissue and MCP-1 Enhance Rat Bone Marrow Stromal Cell Migration in Interface Culture.” Experimental Hematology, 30, 7, 2002, 831-836).
# as §2
# [14] = system: serum C-reactive protein (CRP); experiment: Hangover study, serum CRP, alcohol 1 day; format: in vivo, Wistar albino rats; details: 1 Day alcohol
# From the text: as §2
# [15] = system: Monocyte chemoattractant protein-1 (MCP-1); experiment: CNS/immunology study, serum MCP-1, alcohol 5 days; format: in vivo, Wistar albino rats; details: Pro: Protection (%), rats, alcohol 5 Day
# Experimental: as §3, §2
# [16] = system: interleukin-12 (IL-12); experiment: Hangover study, serum IL-12, alcohol 1 day; format: in vivo, Wistar albino rats; set-up: concentration or dose not given beside the values; details: 1 Day alcohol
# From the text: as §2
# [17] = system: acetylcholinesterase activity of brain homogenate; details: Hangover study, 1 Day alcohol; ingredient amounts in mass concentration (%)
# Experimental: as §4, §5, §6, §7
# [18] = system: interleukin-12 (IL-12) from brain homogenate; experiment: Hangover study, IL-12 from brain homogenate, alcohol 1 day; format: in vivo, Wistar albino rats; set-up: concentration or dose not given beside the values; details: 1 Day alcohol
Structure (SMILES),Brain MCP-1 Pro [1] [%],ACHe Pro [2] [%],ALP Pro [3] [%],AST Pro [4] [%],Brain IL12 Pro [5] [%],WATER MAZE Pro [6] [%],ALT Pro [7] [%],IFN-Gamma Pro [8] [%],CRP Pro [9] [%],IFN-Gamma Pro (Protection) [10] [%],Brain MCP-1 Pro (Protection) [11] [%],IL12 Pro [12] [%],MCP-1 Pro (Protection) [13] [%],CRP Pro (Protection) [14] [%],MCP-1 Pro [15] [%],IL12 Pro (Protection) [16] [%],ACHe Pro (Protection) [17] [%],Brain IL12 Pro (Protection) [18] [%]
"CC1(C(=O)O)CCC2(C)CCC3(C)C(=CC(=O)C4C5(C)CCC(OC6OC(C(=O)O)C(O)C(O)C6OC6OC(C(=O)O)C(O)C(O)C6O)C(C)(C)C5CCC43C)C2C1 (stereo not drawn) [0.3 GA, 18β-GA]",21.36,21.5,11.68,20.46,15.63,15.57,25.62,23.18,15.63,7.85,18.92,10.07,13.97,11.21,15.46,,,
"OC[C@@H](O)[C@@H](O)[C@H](O)[C@H](O)CO [0.5 Man, D-Mannitol]",2.75,5.22,4.78,4.28,,4.95,3.59,,,3.51,,,3.27,,,3.59,4.12,4.25
"C[C@H](N)C(=O)N[C@@H](CCC(N)=O)C(=O)O [1 DP, L-Ala-L-Gln] (H-Ala-Gln-OH)",,3.91,18.96,15.68,10.30,22.38,13.4,8.89,6.33,12.25,3.58,16.44,20.74,31.3,7.14,6.13,,10.53
"OC[C@@H](O)[C@@H](O)[C@H](O)[C@H](O)CO [1.2 Man, D-Mannitol]",14.28,17.58,24.48,22,13.92,12.84,23.19,,,7.79,21.28,,11.85,8.68,,13.45,21.54,12.28
"C[C@H](N)C(=O)N[C@@H](CCC(N)=O)C(=O)O [1.5 DP, L-Ala-L-Gln] (H-Ala-Gln-OH)",,15.29,22.35,20.25,,24.53,14.68,,11.97,20.58,14.96,22.53,11.04,26.13,11.01,20.11,21.14,18.26
"C[C@H](N)C(=O)N[C@@H](CCC(N)=O)C(=O)O [1.25 DP, L-Ala-L-Gln] (H-Ala-Gln-OH)",,9.7,22.73,22,15.82,10.36,17.59,13.09,,10.44,17.02,22.71,14.22,10.61,8.14,,20.33,7.02
"C[C@H](N)C(=O)N[C@@H](CCC(N)=O)C(=O)O [2.0 DP, L-Ala-L-Gln] (H-Ala-Gln-OH)",24.36,36.85,28.68,30.72,,50.36,38.83,22.91,27.24,25.96,23.54,29.54,21.43,33.14,19.16,31.9,31.79,26.34
"OC[C@@H](O)[C@@H](O)[C@H](O)[C@H](O)CO [2.5 Man, D-Mannitol]",24.65,30.61,34.75,42.57,28.33,25.4,38.4,,,18.22,27.66,,,18.33,,21.4,45.12,23.16
"C[C@H](N)C(=O)N[C@@H](CCC(N)=O)C(=O)O [3 DP, L-Ala-L-Gln] (H-Ala-Gln-OH)",,59.25,29.08,32.95,27.57,59.17,29.7,30.24,27.59,31.08,,32.6,29.69,41.82,13.51,30.98,59.25,
